# Biological target: T1, MAGE-A11:PCF11 interaction (GST-MAGE-A11 and FAM-PCF11_4) (Homo sapiens, UniProt P43364)
# T1 construct: GST-MAGE-A11 MHD (human MAGE-A11 MHD amino acid 218-429); made in house; host or cells: E. coli BL21(DE3)
# T1 sequence (P43364 218-429): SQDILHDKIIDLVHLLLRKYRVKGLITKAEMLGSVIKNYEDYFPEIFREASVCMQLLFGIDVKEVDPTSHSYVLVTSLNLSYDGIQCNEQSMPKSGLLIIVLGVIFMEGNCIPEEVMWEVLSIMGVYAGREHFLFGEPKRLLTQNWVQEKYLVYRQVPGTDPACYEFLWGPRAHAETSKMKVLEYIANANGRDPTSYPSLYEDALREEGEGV
# Assay: TR-FRET primary / single point screen at 15 µM
# Format: binding
# Outline: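 Single-point screen at 15 µM final compound in 50 mM Tris pH 7.5, 20 mM MgCl2, 0.1 mg/ml BSA, 1 mM DTT, with 200 nM FAM-PCF11_4, 5 nM Tb-anti-GST and 5 nM GST-MAGE-A11. After 90 min at room temperature, the 520/490 nm TR-FRET ratio (340 nm excitation) gave %Inhibition against no-MAGE-A11 and DMSO controls.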
# [1] = single point TR-FRET screening of 797 quinoline compounds against MAGE-A11:PCF11
# [2] = single point TR-FRET screening of quinoline compounds against MAGE-A11:PCF11, 15 µM
SMILES,percent inhibition (TR-FRET) [1],percent inhibition (TR-FRET) [2]
CCCN(CCCCNc1ccnc2cc(Cl)ccc12)Cc1ccccc1 [SJ000311205],7.684,–
Clc1ccc2c(NCCCN(Cc3ccccc3)Cc3ccncc3)ccnc2c1 [SJ000312679],–,-5.573
Fc1ccc(CN2CCC(Nc3ccnc4cc(Cl)ccc34)CC2)cc1F [SJ000523089],-1.958,–
CCCN(CCCNc1ccnc2cc(Cl)ccc12)Cc1ccc(CC)cc1 [SJ000523001],–,30.1342
CCOC(=O)c1cnc2c(C)cc(C)cc2c1NCCCN1CCOCC1 [SJ000173725],–,6.494
CCCN(CCCNc1ccnc2cc(Cl)ccc12)Cc1cccc(C)c1 [SJ000523041],–,28.5489
Clc1ccc2c(NCCCCN(Cc3ccccc3)Cc3ccco3)ccnc2c1 [SJ000312681],12.0487,–
CCCN(CCCNc1ccnc2cc(Cl)ccc12)Cc1cc2ccccc2o1 [SJ000522991],–,9.295
Oc1ccc(Br)cc1CN1CCC(Nc2ccnc3cc(Cl)ccc23)CC1 [SJ000311181],-1.209,–
CCCN(CCCNc1ccnc2cc(Cl)ccc12)CC1CCCCC1 [SJ000522751],–,15.626
CCCN(CCCNc1c2ccc(Cl)cc2nc2ccc(OC)cc12)Cc1cc(C(F)(F)F)ccc1OC [SJ000522985],–,-46.0179
Clc1ccc2c(NCCCN(CCc3ccccc3)Cc3ccccc3)ccnc2c1 [SJ000357580],–,14.4057
N#Cc1ccc(Cc2ccc3c(NCCCNCc4ccco4)ccnc3c2)cc1 [SJ000311302],–,20.4271
O=C(C[C@H]1CC[C@]2(CC1)OO[C@]1(O2)C2CC3CC(C2)CC1C3)NCCCNc1ccnc2cc(Cl)ccc12 [SJ000578380],–,28.4789
CCCN(CCCNc1ccnc2cc(Cl)ccc12)Cc1ccccc1N [SJ000522747],–,15.4273
CCCN(CCCNc1ccnc2cc(C(F)(F)F)ccc12)Cc1ccc(OC)cc1 [SJ000361273],–,22.8956
CCCN(CCCCNc1ccnc2cc(Cl)ccc12)Cc1cc(Br)ccc1O [SJ000311196],5.724,–
CCCN(CCCNc1ccnc2cc(Cl)ccc12)Cc1ccsc1 [SJ000522744],–,7.824
FC(F)(F)c1ccc2c(NCCCNCc3csc4ccccc34)ccnc2c1 [SJ000521061],–,41.8599
CCCN(CCCNc1ccnc2cc(C(F)(F)F)ccc12)CC1CCCCC1 [SJ000361268],–,33.314
Clc1ccc2c(NCCCN(Cc3ccccc3)Cc3ccc4ccccc4c3)ccnc2c1 [SJ000361182],–,22.052
Clc1ccc2c(NCCCN(Cc3ccccc3)Cc3cccc4c3OCO4)ccnc2c1 [SJ000357598],–,3.49
CCCNCCCNc1ccnc2cc(Cl)ccc12 [SJ000361119],–,9.7847
CCOC(=O)c1cnc2c(ccc3ccccc32)c1NCCN(C)C [SJ000019487],6.418,–
CCCN(CCCNc1ccnc2cc(Cl)ccc12)Cc1ccc(C)s1 [SJ000357433],–,16.5062
CCOC(=O)c1cnc2c(C(F)(F)F)cccc2c1NCCN1CCOCC1 [SJ000281260],0.8341,–
CCCN(CCCNc1ccnc2cc(Cl)ccc12)CCC(C)c1ccccc1 (centres unmarked) [SJ000357573],–,24.9781

# Results, then the compound that gave them:
percent inhibition (TR-FRET) [1],percent inhibition (TR-FRET) [2],SMILES
-7.813,–,CCOC(=O)c1cnc2ccc(C(=O)OC)cc2c1NCCN1CCOCC1 [SJ000127079]
-200.963,–,COc1ccc2nc3cc(Cl)ccc3c(NCCCNCc3ccc(OC(F)(F)F)cc3)c2c1 [SJ000520992]
-290.163,–,COc1ccc2nc3cc(Cl)ccc3c(NCCCNCc3cc(C(F)(F)F)ccc3OC)c2c1 [SJ000521002]
–,19.0144,CC(CCNCCCNc1ccnc2cc(Cl)ccc12)c1ccccc1 (centres unmarked) [SJ000523053]
-4.205,–,O=S(=O)(c1ccc(F)cc1)c1cnc2ccc(Cl)cc2c1N1CCN(c2ccc(F)cc2)CC1 [SJ000117063]
-12.8602,–,COc1ccccc1N1CCN(c2c(S(=O)(=O)c3ccc(C)cc3)cnc3ccc(Cl)cc23)CC1 [SJ000117067]
-0.5958,–,CCOC(=O)c1cnc2ccc(C(=O)O)cc2c1N1CCN(CCO)CC1 [SJ000280902]
6.622,–,Fc1cccc(CN2CCC(Nc3ccnc4cc(Cl)ccc34)CC2)c1 [SJ000523092]
-405.549,–,CCCCNCCCNc1c2ccc(Cl)cc2nc2ccc(OC)cc12 [SJ000520995]
-31.1045,–,O=S(=O)(c1ccccc1)c1cnc2ccc(F)cc2c1N1CCN(c2ccccc2)CC1 [SJ000083976]
-276.65,–,CCCN(CCCNc1c2ccc(Cl)cc2nc2ccc(OC)cc12)Cc1cnn(C)c1 [SJ000522980]
-5.573,–,CN1CCN(c2c(C(=O)c3ccccc3)cnc3ccc(Cl)cc23)CC1 [SJ000247338]
-102.758,–,CCCN(CCCNc1c2ccc(Cl)cc2nc2ccc(OC)cc12)Cc1ccc(-c2ccccc2[N+](=O)[O-])o1 [SJ000523019]
-120.975,–,CCCN(CCCNc1c2ccc(Cl)cc2nc2ccc(OC)cc12)CCC(C)c1ccccc1 (centres unmarked) [SJ000522731]
7.779,–,COc1ccc(O)c(CN2CCC(Nc3ccnc4cc(Cl)ccc34)CC2)c1 [SJ000357527]
13.1455,–,COc1ccc(CN(CCCCNc2ccnc3cc(Cl)ccc23)Cc2ccccc2)cc1F [SJ000520438]
–,1.847,CCCN(CCCNc1c2ccc(Cl)cc2nc2ccc(OC)cc12)Cc1cc(F)ccc1OC [SJ000520931]
-353.834,–,COc1ccc2nc3cc(Cl)ccc3c(NCCCNCc3ccccc3F)c2c1 [SJ000523034]
-219.419,–,COc1ccc2nc3cc(Cl)ccc3c(NCCCNCc3ccc(Br)o3)c2c1 [SJ000523030]
-187.09,–,CCCN(CCCNc1c2ccc(Cl)cc2nc2ccc(OC)cc12)Cc1c(F)cccc1OC [SJ000522733]
-85.5732,–,COc1ccc2ncc(S(=O)(=O)c3ccc(C)cc3)c(N3CCN(c4ccccc4)CC3)c2c1 [SJ000117048]
-2.0938,–,COc1ccc2ncc(S(=O)(=O)c3ccccc3)c(N3CCN(C)CC3)c2c1 [SJ000083947]
-71.1577,–,COc1ccc2ncc(S(=O)(=O)c3ccccc3)c(N3CCN(Cc4ccccc4)CC3)c2c1 [SJ000247248]
23.5757,–,COC(=O)CCCCCN(CCCCNc1ccnc2cc(Cl)ccc12)Cc1ccccc1 [SJ000520432]
0.1242,–,CCN1CCN(c2c(S(=O)(=O)c3ccccc3)cnc3ccc(OC)cc23)CC1 [SJ000083958]
5.291,–,CCOC(=O)c1cnc2ccc(OCC)cc2c1NCCN1CCOCC1 [SJ000027289]
6.554,–,Clc1ccc2c(NC3CCN(Cc4ccccc4)CC3)ccnc2c1 [SJ000357524]
-163.904,–,CCCN(CCCNc1c2ccc(Cl)cc2nc2ccc(OC)cc12)CC1CCCCC1 [SJ000520938]
–,-95.379,COc1ccc2nc3cc(Cl)ccc3c(NCCCNCc3ccc(Cl)c([N+](=O)[O-])c3)c2c1 [SJ000523036]

# From article PMC7529893, “Structural basis for substrate recognition and chemical inhibition of oncogenic MAGE ubiquitin ligases” (Nature Communications, 2020)
